System: GA-primed murine splenocytes
Assay: ANOVA-based pattern identification method
Assay type: cell-based, mouse
Conditions: DOWN IN generic ONLY
Source text: We sought to identify probes matching specific patterns of expression across experimental conditions using a technique that referred to as the ANOVA-based Pattern Identification Method.
To carry out the analysis in a general manner, we computed the 6 p-values required to do pairwise comparisons of all 4 conditions for all probes using the ANOVA1 function in MATLAB. We then identified sets of probes matching the desired pattern. In the example above, probes were identified as being only affected by PG if their 6 pairwise comparison pvalues matched the following pattern (pGA-PG<0.05, pPG-reference standard<0.05, pPG-Medium<0.05, pGAMedium>0.05, pGA-reference standard>0.05, preference standard-Medium>0.05).

## glatiramer acetate [GA]
  GFRA3 expression level: 5.616
  GJA7 expression level: 5.868
  GM362 expression level: 5.639
  HEATR5A expression level: 5.695
  IGHVS515—AF290966_IG_HEAVY—VARIABLE_5515_49 expression level: 5.952
  LOC235971 expression level: 5.505
  LOC277422 expression level: 5.729
  LOC382760 expression level: 5.651
  LOC382783 expression level: 5.536
  LOC383612 expression level: 5.569
  LOC383940 expression level: 5.805
  LOC384215 expression level: 5.829
  LOC384513 expression level: 5.705
  LOC385059 expression level: 5.539
  LOC385626 expression level: 6.046
  LOC620009 expression level: 5.619
  LOC676672 expression level: 5.825
  LOC100043389 expression level: 5.675
  LTBP1 expression level: 5.694
  NEUROD4 expression level: 5.671
  NFAT5 expression level: 5.815
  OA1 expression level: 5.552
  OLFR750 expression level: 5.646
  OLFR1085 expression level: 5.642
  OLFR1158 expression level: 5.912
  OLFR1180 expression level: 5.658
  OLFR1230 expression level: 5.655
  OSBPL6 expression level: 5.8511
  PCDHGA8 expression level: 5.782
  PIK3R4 expression level: 5.881
  PPP1R14D expression level: 5.611
  PTCHD2 expression level: 5.831
  RARRES1 expression level: 5.601
  RNF207 expression level: 5.863
  RPL10A expression level: 14.66
  RTN2 expression level: 5.939
  SCL0070954.1_214 expression level: 5.822
  SERPINB3D expression level: 5.741
  SMARCA2 expression level: 5.616
  TMEM219 expression level: 6.158
  TRPC6 expression level: 5.632
  UTX expression level: 5.7
  control_ILMN_1378571 expression level: 5.812
  control_ILMN_1378664 expression level: 5.743
  control_ILMN_1379333 expression level: 5.62
Group mean
  1110032A03RIK expression: 5.853
  1600012H06RIK expression: 7.313
  1600029O10RIK expression: 7.692
  1600032L17RIK expression: 6.091
  1700006H02RIK expression: 5.861
  1700011H14RIK expression: 5.738
  1700016G05RIK expression: 5.78
  1700016L04RIK expression: 5.693
  1700045I19RIK expression: 5.885
  1700073E17RIK expression: 5.629
  1700112H15RIK expression: 5.628
  1810005K13RIK expression: 5.74
  1810007M14RIK expression: 6.86
  2210008F06RIK expression: 5.65
  2210018M11RIK expression: 6.603
  2310016E02RIK expression: 5.742
  2510049I19RIK expression: 6.311
  2600011C06RIK expression: 6.286
  2810402E24RIK expression: 6.296
  4733401O04RIK expression: 6.449
  4833420G17RIK expression: 6.181
  4921505C17RIK expression: 6.382
  4921506J03RIK expression: 9.893
  4921506M07RIK expression: 5.749
  4922502D21RIK expression: 5.774
  4930449I04RIK expression: 5.894
  4930524L23RIK expression: 5.492
  5830411J07RIK expression: 5.837
  5830415L20RIK expression: 7.797
  5830472H07RIK expression: 6.24
  6030408K21RIK expression: 5.64
  9030003C19RIK expression: 6.271
  9130601C02RIK expression: 5.724
  9330133O14RIK expression: 6.205
  9330171B01RIK expression: 5.814
  9530013H16R1K expression: 5.782
  9530053H22 expression: 5.531
  9830118G07RIK expression: 6.53
  9930021J03RIK expression: 5.61
  6030408816RIK expression: 6.231
  A130003P22RIK expression: 6.043
  A130027D22RIK expression: 6.184
  A630040J04RIK expression: 5.997
  A630057J21RIK expression: 5.71
  A730082L10RIK expression: 6.255
  A930008A22RIK expression: 8.393
  A930025D01RIK expression: 6.43
  ADRA1B expression: 5.76
  AFMID expression: 6.226
  AGPAT5 expression: 5.926
  AGT expression: 5.634
  APOM expression: 6.071
  ARHGAP12 expression: 5.654
  ASH1L expression: 5.947
  ATG12 expression: 8.962
  ATL1 expression: 5.666
  AW822252 expression: 5.749
  B230120H23RIK expression: 5.612
  B230216G23RIK expression: 5.625
  B930071N01RIK expression: 5.764
  BC003331 expression: 7.368
  BC016608 expression: 5.838
  BC057371 expression: 5.752
  BCL10 expression: 6.261
  BCL11B expression: 6.506
  BCORL1 expression: 6.102
  BHLHB3 expression: 5.621
  BIRC6 expression: 6.264
  BMPR1B expression: 5.732
  C030004B10RIK expression: 5.708
  C77370 expression: 5.694
  C87414 expression: 5.972
  C130039E17RIK expression: 5.729
  C130064E22RIK expression: 7.411
  C130072C03RIK expression: 6.075
  C130075H21RIK expression: 5.869
  C130078D09RIK expression: 6.02
  C330011J12RIK expression: 5.722
  CALCRL expression: 5.569
  CCDC104 expression: 5.832
  CDH23 expression: 5.945
  CDKN1B expression: 6.29
  CFL2 expression: 6.246
  CHMP7 expression: 9.491
  CLASP1 expression: 6.034
  COL23A1 expression: 7.128
  COPS3 expression: 6.029
  COPZ1 expression: 6.26
  CPEB2 expression: 5.648
  CRLF1 expression: 5.648
  CTDSPL2 expression: 6.711
  D12WSU95E expression: 9.426
  D130078K04RIK expression: 5.957
  D730033A03RIK expression: 5.894
  D930007M19RIK expression: 6.333
  DEFB14 expression: 5.775
  DLC1 expression: 5.804
  DLG4 expression: 6.044
  DLGAP2 expression: 5.718
  DLX6 expression: 5.766
  DNAJC28 expression: 5.998
  DPPA1 expression: 5.758
  DPPA4 expression: 5.791
  E230016F22RIK expression: 5.685
  E530016P10RIK expression: 6.096
  EEFSEC expression: 5.654
  EG546913 expression: 5.766
  ELF2 expression: 6.475
  EP400 expression: 5.945
  FAAH expression: 5.947
  FABP2 expression: 5.582
  FBXW13 expression: 5.945
  FOXJ3 expression: 8.648
  GADD45GIP1 expression: 5.893
  GALNT1 expression: 7.895
  GALNT6 expression: 5.873
  GAPVD1 expression: 9.838
  GLRA1 expression: 5.643
  GM239 expression: 5.731
  GM438 expression: 5.731
  GM949 expression: 5.662
  GPR12 expression: 5.747
  GPRIN3 expression: 5.628
  GUCY2C expression: 5.74
  HARS expression: 6.212
  HBB-B1 expression: 13.28
  HEATR5B expression: 6.251
  HIRA expression: 5.73
  HIVEP3 expression: 5.796
  HPN expression: 5.793
  HRK expression: 5.72
  HSD362 expression: 5.745
  HSPA1B expression: 5.99
  ID2 expression: 6.095
  IFI204 expression: 5.486
  IGHV14S3—X03573$M12991X03573—IG_HEAVY—VARIABLE_14S3_203 expression: 6.044
  IKZF5 expression: 7.23
  IL1F9 expression: 5.644
  INPP4B expression: 9.329
  INSL6 expression: 9.438
  ITGA6 expression: 6.589
  ITK expression: 10.36
  JRKL expression: 5.816
  K20D4 expression: 5.688
  KAT2B expression: 6.564
  KCNK4 expression: 5.659
  KISS1 expression: 5.727
  KRIT1 expression: 5.684
  KRT32 expression: 6.01
  LCN3 expression: 5.859
  LCP2 expression: 6.557
  LOC209474 expression: 5.679
  LOC229152 expression: 5.605
  LOC236397 expression: 5.838
  LOC236831 expression: 12.43
  LOC268939 expression: 5.99
  LOC279638 expression: 6.022
  LOC333749 expression: 5.939
  LOC381448 expression: 12.91
  LOC381561 expression: 13.17
  LOC381770 expression: 6.112
  LOC382061 expression: 10.4
  LOC382454 expression: 5.761
  LOC384240 expression: 5.807
  LOC384287 expression: 5.612
  LOC385027 expression: 5.666
  LOC385046 expression: 5.695
  LOC630421 expression: 5.995
  LOC637082 expression: 5.805
  LOC674087 expression: 8.034
  LOC675899 expression: 11.9
  LOC100045437 expression: 5.74
  LOC100046343 expression: 8.607
  LOC100046568 expression: 5.888
  LOC100048049 expression: 5.81
  LOC100048616 expression: 6.595
  LOXL3 expression: 5.801
  LPIN2 expression: 7.582
  LRRC18 expression: 5.542
  LRRC39 expression: 5.712
  MACROD2 expression: 5.854
  MADD expression: 5.584
  MAT2A expression: 8.359
  MDM2 expression: 10.46
  MEDI expression: 5.672
  MEX3A expression: 6.913
  MIA3 expression: 5.862
  MIS12 expression: 5.989
  MKI67 expression: 5.673
  MRPS31 expression: 5.671
  MSH3 expression: 6.288
  MYB expression: 5.95
  MYO5C expression: 5.73
  NA112 expression: 8.275
  NANP expression: 5.686
  NARF expression: 7.224
  NCOA2 expression: 5.964
  NDRG1 expression: 7.329
  NIN expression: 8.534
  NIPSNAP1 expression: 9.27
  NT5C expression: 10.09
  NUFIP2 expression: 6.03
  OLFR125 expression: 5.697
  OLFR463 expression: 5.805
  OLFR504 expression: 5.746
  OLFR564 expression: 5.592
  OLFR782 expression: 5.74
  OLFR894 expression: 5.766
  PAPPA expression: 5.918

From patent US20140193827A1 (TEVA PHARMACEUTICAL INDUSTRIES, LTD., priority 2013, published 2014)
